One block for each compound: values may come before it. Activity calls are given as the source filed them. The rule behind the calls is not given here.
Key:
[1] = target: T1, Aurora kinase C (Homo sapiens) (UniProt Q9UQB9); assay: Inhibition of human Aurora C at 18.6 nM by HotSpot assay relative to control
T1 sequence (whole entry): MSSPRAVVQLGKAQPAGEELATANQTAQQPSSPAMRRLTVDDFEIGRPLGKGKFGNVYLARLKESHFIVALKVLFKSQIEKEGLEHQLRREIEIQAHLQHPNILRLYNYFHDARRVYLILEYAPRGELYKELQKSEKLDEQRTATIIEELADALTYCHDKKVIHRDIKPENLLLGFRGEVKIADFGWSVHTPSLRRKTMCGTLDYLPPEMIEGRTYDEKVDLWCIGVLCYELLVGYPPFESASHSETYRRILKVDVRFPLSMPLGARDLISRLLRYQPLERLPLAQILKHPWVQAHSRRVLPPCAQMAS

[2] = target: Calcium/calmodulin-dependent protein kinase type II subunit gamma (Homo sapiens) (UniProt Q13555); assay: Inhibition of human CAMK2g at 18.6 nM by HotSpot assay relative to control
[3] = target: Serine/threonine-protein kinase 10 (Homo sapiens) (UniProt O94804); assay: Inhibition of human LOK at 18.6 nM by HotSpot assay relative to control
[4] = target: BDNF/NT-3 growth factors receptor (Homo sapiens) (UniProt Q16620); assay: Inhibition of human TRKB at 18.6 nM by HotSpot assay relative to control
[5] = target: Tyrosine-protein kinase Yes (Homo sapiens) (UniProt P07947); assay: Inhibition of human YES1 at 18.6 nM by HotSpot assay relative to control
[6] = target: T2, Mitogen-activated protein kinase 13 (Homo sapiens) (UniProt O15264); assay: Inhibition of human MAPK13 at 500 nM by HotSpot assay relative to control
T2 sequence (whole entry): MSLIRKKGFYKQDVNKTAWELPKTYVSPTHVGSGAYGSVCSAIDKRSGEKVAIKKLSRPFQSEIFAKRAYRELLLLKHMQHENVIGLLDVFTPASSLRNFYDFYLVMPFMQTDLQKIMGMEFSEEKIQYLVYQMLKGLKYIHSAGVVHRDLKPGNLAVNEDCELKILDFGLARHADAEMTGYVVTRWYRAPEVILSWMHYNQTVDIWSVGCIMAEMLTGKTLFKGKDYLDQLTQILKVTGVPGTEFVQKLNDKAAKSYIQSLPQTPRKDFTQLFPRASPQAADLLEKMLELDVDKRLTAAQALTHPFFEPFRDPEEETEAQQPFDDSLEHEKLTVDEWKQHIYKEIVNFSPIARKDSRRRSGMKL

[7] = target: Serine/threonine-protein kinase PLK2 (Homo sapiens) (UniProt Q9NYY3); assay: Inhibition of human PLK2 at 500 nM by HotSpot assay relative to control
[8] = target: Macrophage-stimulating protein receptor (Homo sapiens) (UniProt Q04912); assay: Inhibition of human MST1R at 500 nM by HotSpot assay relative to control
[9] = target: Insulin receptor (Homo sapiens) (UniProt P06213); assay: Inhibition of wild-type human Insulin receptor transfected in CHO-K1 cell lysate assessed as decrease in tyrosine phosphorylation at 10 uM for 30 mins on ice followed by insulin stimulation for 10 mins by Western blot analysis; format: subcellular; settings: time 40.0 min
[10] = target: T3, Dual specificity tyrosine-phosphorylation-regulated kinase 3 (Homo sapiens) (UniProt O43781); assay: Inhibition of human DYRK3 at 1.82 nM by HotSpot assay relative to control
T3 sequence (whole entry): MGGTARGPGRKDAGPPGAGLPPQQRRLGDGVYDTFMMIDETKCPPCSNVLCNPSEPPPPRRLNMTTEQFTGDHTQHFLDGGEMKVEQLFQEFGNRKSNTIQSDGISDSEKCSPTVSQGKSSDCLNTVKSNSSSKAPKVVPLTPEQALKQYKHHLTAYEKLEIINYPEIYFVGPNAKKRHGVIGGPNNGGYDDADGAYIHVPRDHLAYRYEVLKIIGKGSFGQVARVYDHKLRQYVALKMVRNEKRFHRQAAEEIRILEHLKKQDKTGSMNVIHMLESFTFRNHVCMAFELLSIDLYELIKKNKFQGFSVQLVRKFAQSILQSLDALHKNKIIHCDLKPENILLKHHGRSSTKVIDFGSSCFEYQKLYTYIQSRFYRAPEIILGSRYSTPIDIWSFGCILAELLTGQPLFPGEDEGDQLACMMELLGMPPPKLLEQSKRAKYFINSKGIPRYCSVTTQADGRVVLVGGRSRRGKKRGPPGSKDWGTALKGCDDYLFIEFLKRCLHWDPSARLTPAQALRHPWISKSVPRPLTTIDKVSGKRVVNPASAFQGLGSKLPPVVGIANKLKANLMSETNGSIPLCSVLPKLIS

[11] = target: SRSF protein kinase 3 (Homo sapiens) (UniProt Q9UPE1); assay: Inhibition of human STK23 at 1.82 nM by HotSpot assay relative to control
[12] = target: Mitogen-activated protein kinase 14 (Homo sapiens) (UniProt Q16539); assay: Inhibition of human MAPK14 at 1.82 nM by HotSpot assay relative to control
[13] = target: SRSF protein kinase 2 (Homo sapiens) (UniProt P78362); assay: Inhibition of human SRPK2 at 1.82 nM by HotSpot assay relative to control
[14] = target: T4, Inhibitor of nuclear factor kappa-B kinase subunit alpha (Homo sapiens) (UniProt O15111); settings: dose 1.82 nM
T4 sequence (whole entry): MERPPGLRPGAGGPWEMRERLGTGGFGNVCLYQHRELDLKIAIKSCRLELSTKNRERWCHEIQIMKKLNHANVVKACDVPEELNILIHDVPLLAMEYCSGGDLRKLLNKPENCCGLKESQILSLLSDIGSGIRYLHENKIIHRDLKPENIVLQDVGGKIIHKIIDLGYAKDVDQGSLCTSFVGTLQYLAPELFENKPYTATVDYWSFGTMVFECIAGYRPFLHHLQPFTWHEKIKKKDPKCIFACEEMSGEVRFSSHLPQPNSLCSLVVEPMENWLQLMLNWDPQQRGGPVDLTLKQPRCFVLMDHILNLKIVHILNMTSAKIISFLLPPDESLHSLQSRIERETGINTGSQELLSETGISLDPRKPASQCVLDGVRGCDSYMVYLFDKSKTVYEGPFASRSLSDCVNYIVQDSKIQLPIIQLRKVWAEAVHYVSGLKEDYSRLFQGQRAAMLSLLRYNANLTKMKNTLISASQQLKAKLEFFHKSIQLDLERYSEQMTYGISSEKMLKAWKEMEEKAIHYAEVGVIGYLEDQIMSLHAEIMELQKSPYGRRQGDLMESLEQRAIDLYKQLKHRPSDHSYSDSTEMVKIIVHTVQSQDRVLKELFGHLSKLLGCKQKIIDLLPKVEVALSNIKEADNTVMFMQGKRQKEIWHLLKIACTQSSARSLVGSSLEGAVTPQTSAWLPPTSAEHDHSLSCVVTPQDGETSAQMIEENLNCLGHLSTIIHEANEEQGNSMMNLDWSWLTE
Description: Inhibition of human IKKa at 1.82 nM by HotSpot assay relative to control

Chain of Serine/threonine-protein kinase PLK2 (Homo sapiens) (Q9NYY3 whole entry, looked up): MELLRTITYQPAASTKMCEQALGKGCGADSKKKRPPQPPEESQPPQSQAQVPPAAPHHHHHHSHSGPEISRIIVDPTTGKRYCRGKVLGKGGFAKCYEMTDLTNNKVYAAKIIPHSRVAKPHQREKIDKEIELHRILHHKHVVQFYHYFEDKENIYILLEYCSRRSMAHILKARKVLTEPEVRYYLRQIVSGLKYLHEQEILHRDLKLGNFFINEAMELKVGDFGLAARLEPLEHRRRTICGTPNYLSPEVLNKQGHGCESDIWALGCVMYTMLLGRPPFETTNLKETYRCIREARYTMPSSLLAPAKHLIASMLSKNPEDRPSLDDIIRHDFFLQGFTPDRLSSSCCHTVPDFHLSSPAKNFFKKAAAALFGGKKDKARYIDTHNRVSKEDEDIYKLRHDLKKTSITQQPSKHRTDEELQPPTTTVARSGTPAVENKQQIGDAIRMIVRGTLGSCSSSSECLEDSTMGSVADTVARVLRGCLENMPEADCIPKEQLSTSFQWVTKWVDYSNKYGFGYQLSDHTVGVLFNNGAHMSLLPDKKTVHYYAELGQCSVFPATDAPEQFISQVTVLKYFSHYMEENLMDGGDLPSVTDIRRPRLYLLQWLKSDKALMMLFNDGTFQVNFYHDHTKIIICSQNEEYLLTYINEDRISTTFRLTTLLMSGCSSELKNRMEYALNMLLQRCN
Chain of Macrophage-stimulating protein receptor (Homo sapiens) (Q04912 25-304 limits assumed): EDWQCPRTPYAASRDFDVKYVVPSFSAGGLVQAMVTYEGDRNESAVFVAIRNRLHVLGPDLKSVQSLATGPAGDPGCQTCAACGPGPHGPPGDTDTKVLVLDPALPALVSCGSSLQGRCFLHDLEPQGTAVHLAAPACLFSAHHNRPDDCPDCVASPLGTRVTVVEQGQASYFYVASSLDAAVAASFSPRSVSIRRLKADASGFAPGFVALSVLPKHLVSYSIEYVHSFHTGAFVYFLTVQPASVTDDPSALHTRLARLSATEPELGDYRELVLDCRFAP
Chain of Macrophage-stimulating protein receptor (Homo sapiens) (Q04912 310-1400 limits assumed): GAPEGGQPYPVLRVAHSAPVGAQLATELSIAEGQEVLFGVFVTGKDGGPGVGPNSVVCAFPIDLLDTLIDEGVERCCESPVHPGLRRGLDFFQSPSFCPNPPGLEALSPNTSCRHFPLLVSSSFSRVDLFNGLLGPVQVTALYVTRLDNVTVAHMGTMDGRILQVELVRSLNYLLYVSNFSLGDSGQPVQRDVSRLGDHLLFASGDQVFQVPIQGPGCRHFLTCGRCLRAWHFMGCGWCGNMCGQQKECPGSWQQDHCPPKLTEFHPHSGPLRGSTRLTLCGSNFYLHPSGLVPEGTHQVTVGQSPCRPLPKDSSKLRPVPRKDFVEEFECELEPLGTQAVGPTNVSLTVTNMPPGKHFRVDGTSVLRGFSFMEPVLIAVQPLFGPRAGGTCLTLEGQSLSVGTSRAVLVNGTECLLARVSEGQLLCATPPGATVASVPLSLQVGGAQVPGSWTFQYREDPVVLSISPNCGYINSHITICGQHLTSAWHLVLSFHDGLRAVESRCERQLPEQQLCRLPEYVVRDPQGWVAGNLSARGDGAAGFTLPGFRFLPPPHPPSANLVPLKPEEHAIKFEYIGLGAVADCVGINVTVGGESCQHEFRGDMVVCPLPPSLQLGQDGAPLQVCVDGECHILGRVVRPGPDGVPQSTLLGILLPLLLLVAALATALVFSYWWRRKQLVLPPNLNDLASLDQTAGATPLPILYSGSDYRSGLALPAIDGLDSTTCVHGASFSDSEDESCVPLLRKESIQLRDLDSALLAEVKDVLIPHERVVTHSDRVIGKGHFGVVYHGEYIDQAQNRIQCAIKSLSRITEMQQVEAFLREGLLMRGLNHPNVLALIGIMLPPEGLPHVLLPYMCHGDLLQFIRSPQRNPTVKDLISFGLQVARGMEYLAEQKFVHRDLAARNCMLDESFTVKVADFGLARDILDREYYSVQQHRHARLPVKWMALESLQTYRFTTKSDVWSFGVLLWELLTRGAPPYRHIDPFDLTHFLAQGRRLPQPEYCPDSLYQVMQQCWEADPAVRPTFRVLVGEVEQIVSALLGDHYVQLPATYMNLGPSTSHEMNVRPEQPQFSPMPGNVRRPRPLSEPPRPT
Chain of BDNF/NT-3 growth factors receptor (Homo sapiens) (Q16620 32-822 limits assumed): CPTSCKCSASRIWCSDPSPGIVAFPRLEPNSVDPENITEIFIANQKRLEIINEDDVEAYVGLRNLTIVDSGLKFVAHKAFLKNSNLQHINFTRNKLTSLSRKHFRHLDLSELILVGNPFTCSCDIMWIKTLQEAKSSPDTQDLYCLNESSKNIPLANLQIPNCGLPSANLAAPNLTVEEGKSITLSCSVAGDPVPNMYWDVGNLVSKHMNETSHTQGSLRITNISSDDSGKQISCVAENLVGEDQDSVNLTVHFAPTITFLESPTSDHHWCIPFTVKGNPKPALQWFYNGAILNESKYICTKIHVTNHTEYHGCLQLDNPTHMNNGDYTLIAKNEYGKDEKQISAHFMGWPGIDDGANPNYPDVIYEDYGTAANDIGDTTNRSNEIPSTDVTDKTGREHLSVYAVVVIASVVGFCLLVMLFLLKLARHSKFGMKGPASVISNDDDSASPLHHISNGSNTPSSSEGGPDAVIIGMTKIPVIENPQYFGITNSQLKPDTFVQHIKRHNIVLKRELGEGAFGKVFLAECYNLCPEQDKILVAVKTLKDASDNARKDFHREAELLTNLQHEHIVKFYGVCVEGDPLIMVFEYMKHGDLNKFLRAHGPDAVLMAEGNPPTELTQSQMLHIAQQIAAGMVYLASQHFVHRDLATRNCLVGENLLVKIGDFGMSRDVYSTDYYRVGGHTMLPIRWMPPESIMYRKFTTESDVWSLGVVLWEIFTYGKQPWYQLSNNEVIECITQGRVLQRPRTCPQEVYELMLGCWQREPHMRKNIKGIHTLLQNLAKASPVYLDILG
Chain of Mitogen-activated protein kinase 14 (Homo sapiens) (Q16539 whole entry): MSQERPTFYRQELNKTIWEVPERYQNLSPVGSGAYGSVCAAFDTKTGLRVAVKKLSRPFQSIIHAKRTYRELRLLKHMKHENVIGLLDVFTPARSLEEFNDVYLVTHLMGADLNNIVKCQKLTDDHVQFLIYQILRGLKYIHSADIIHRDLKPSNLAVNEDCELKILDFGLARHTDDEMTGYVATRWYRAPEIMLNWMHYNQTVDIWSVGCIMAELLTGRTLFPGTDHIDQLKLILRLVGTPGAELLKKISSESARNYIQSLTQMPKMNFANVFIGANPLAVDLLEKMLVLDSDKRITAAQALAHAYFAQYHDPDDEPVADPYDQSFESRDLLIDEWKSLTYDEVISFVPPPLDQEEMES
Chain of Tyrosine-protein kinase Yes (Homo sapiens) (P07947 2-543 limits assumed): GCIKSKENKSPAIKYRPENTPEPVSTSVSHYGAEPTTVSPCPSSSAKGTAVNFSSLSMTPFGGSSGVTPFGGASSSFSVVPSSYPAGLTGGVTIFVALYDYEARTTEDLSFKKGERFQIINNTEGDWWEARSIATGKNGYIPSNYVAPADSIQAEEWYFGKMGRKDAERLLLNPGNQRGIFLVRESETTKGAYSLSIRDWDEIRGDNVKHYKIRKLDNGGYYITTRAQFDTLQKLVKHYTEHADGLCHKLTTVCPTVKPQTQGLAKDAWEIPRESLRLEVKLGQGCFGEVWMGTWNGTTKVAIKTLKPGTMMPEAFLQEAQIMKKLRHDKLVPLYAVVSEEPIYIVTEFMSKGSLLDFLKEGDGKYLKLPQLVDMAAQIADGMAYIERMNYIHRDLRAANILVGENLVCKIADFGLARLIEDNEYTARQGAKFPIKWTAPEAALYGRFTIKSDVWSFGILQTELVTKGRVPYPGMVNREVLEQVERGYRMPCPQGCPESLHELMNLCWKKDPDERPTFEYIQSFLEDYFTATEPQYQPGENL
Chain of Calcium/calmodulin-dependent protein kinase type II subunit gamma (Homo sapiens) (Q13555 whole entry): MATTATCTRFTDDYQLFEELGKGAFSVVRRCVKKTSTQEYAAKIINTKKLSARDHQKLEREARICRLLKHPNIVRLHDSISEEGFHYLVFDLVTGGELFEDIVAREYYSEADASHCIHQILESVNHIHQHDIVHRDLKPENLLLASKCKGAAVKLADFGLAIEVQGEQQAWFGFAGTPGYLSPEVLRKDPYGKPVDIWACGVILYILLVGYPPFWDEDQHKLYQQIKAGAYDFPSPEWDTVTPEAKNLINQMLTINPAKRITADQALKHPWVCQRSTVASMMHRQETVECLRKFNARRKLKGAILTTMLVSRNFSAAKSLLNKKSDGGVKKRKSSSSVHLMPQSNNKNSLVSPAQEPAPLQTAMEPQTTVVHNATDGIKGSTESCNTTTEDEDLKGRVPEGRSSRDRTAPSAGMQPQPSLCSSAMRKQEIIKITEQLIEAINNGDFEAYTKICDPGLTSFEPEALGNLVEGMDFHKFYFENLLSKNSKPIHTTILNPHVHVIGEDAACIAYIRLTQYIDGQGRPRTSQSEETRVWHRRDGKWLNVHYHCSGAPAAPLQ
Chain of SRSF protein kinase 2 (Homo sapiens) (P78362 whole entry, looked up): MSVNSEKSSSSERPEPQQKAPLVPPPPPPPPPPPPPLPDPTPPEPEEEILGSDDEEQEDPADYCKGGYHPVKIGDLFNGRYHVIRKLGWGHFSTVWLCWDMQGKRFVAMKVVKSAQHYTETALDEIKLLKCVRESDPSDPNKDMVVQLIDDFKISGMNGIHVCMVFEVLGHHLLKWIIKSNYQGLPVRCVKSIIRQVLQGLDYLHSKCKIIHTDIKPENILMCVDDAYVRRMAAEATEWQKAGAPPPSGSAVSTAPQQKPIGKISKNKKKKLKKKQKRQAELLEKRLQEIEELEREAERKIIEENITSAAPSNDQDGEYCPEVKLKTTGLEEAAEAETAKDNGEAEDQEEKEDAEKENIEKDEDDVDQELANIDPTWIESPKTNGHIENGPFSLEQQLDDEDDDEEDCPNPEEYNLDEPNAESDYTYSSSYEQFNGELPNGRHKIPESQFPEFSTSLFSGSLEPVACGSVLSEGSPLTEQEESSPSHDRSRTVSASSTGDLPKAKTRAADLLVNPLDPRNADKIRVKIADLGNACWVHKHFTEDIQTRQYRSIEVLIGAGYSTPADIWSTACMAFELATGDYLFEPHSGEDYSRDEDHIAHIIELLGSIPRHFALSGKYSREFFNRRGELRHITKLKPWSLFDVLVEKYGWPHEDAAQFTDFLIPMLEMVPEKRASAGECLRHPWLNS

- inhibition [1]: -7.85%
- inhibition [2]: 2.76%
- inhibition [3]: 9.09%
- inhibition [4]: -7.44%
- inhibition [5]: 4.32%
Structure (SMILES): C[C@]1(O)C[C@@H](c2nc(-c3ccc4ccc(-c5ccccc5)nc4c3)c3c(N)nccn32)C1

Structure (SMILES): Oc1n[nH]c2nnc(-c3c(-c4ccccc4)nn4ccccc34)cc12
- inhibition [6]: 3.76%
- inhibition [7]: -3.28%
- inhibition [8]: -6.32%
- inhibition [9]: Active

Structure (SMILES): Nc1n[nH]c2nnc(-c3c(-c4ccccc4)nn4ccccc34)cc12
- inhibition [6]: -0.81%
- inhibition [7]: -6.73%
- inhibition [8]: -1.66%

- inhibition [10]: 8.06%
- inhibition [11]: -7.78%
- inhibition [12]: -2.94%
- inhibition [13]: -2.03%
- inhibition [14]: 3.74%
Structure (SMILES): C[C@@]1(C(=O)Nc2ccc(F)nc2)CCCN1c1nc(Nc2cc(C3CC3)n[nH]2)c2cccn2n1

— ChEMBL document CHEMBL5653615 (J Biol Chem, 2013)
